From patent US9249148B2, “Tris(hetero)arylpyrazoles and use thereof” (AICURIS GMBH & CO. KG, priority 2012, dated 2016) come the findings set out here.

Bounds are passed on as bounds.

Assay type in all cases: cell-based
For one experiment, the system named is HIV-1NL4-3 K103N-Y181C. The experiment in a line: Luminescence Reduction Assay, luciferase reporter virus with resistance mutations in MT4 cells. The settings on record: Human immunodeficiency virus 1, MT4, read-out: EC50 (μM) MT4 cells HIV-1NL4-3 K103N-Y181C 2% FBS. The text has this:
(§1) For this assay, HIV-1NL4-3 reporter viruses are used which carry the luciferase164 gene (lu164) in place of the nef gene. The viruses are generated by transfection of 293T cells with the corresponding proviral pNL4-3 plasmid (Lipofectamine Reagent, Invitrogen, Karlsruhe, Germany). Starting from the proviral plasmid DNA, viruses with defined resistance mutations (single or combined) are produced in the reverse transcriptase gene using the “QuikChange II XL Site-Directed Mutagenesis Kit” (Stratagene, Cedar Creek, Tex., USA). Resistance mutations include, among others: L74V, A98G, A98S, L100I, K101E, K103N, V106A, V106I, V106M, V108I, V108A, E138K, V179I, V179D, V179E, Y181C, Y181I, Y188L, G190A, G1905, H221Y, P225H, F227C, F227L, F227V, M230I, M230L, L234I, P236L, N348I, T369A, T369I, T369V. MT4 cells infected with these reporter viruses (NIH AIDS Research and Reference Reagent Program) secrete luciferase into the medium, which enables the luminometric quantification of the virus replication.
(§2) For starting a 96-well MTP, 3 million MT4 cells are pelleted, suspended in 1 ml RPMI 1640 medium without phenol red (Invitrogen, Karlsruhe, Germany)/10% FBS/2 mM L-glutamine/1% Pen/Strep (Invitrogen, Karlsruhe, Germany), and incubated for 2 hours at 37° C. with a suitable quantity of the relevant HIV-1NL4-3 reporter virus (pellet infection). Non-adsorbed viruses are then washed out, and the infected cells are pelleted again and suspended in 8 ml RPMI 1640 medium without phenol red/2% or 10% FBS/2 mM L-glutamine/1% Pen/Strep. From this, 90 μl per well is pipetted into a white 96-well MTP to 10 μl of test substance at a suitable level of dilution. In order to avoid edge effects, the edge wells of the MTP are not used for substance dilutions. The second vertical row of the MTP contains only infected cells (virus control) and the eleventh vertical row only non-infected cells (cell control), each in RPMI 1640 medium without phenol red/2% or 10% FBS/2 mM L-glutamine/1% Pen/Strep. The remaining wells of the MTP contain the compounds in accordance with the invention in various concentrations, starting from the third vertical row, from which the test substances are diluted in 3-step sequences up to the tenth vertical row by a factor of 3^7. The test substances are dissolved in DMSO; the final DMSO concentration in the test formulation is 1%.

A further experiment deals with HIV-1NL4-3 wildtype. The experiment in a line: Luminescence Reduction Assay, luciferase reporter virus in MT4 cells. The note with it: Human immunodeficiency virus 1, MT4, read-out: EC50 (μM) MT4 cells HIV-1NL4-3 wildtype 2% FBS.
From the text: as §1, §2

The subject of a further experiment is HIV-1LAI wildtype. The experiment in a line: alamarBlue Viability Assay with HIV-1LAI-infected MT4 cells. The note with it: Human immunodeficiency virus 1, 10% FBS. The method, then:
For starting a 96-well MTP, 3 million PBLs are pelleted, suspended in 1 ml RPMI 1640 medium/10% FBS/2 mM L-glutamine/1% Pen/Strep and incubated for 2 hours at 37° C. with a suitable quantity of the relevant HIV-1LAI (NIH AIDS Research & Reference Reagent Program, Germantown, USA) (pellet infection). Non-adsorbed viruses are then washed out, and the infected cells pelleted again and suspended in 18 ml RPMI 1640 medium/10% FBS/2 mM L-glutamine/1% Pen/Strep/Interleukin-2 (40 U/ml). From this, 180 μl per well is pipetted into a 96-well MTP to 20 μl of test substance at a suitable level of dilution. Alternatively, the HIV is added after preparation of the substance dilutes in the MTP together with the cells, and is not washed out (supernatant infection). In order to avoid edge effects, the edge wells of the MTP are not used for substance dilutions. The second vertical row of the MTP contains only infected cells (virus control) and the eleventh vertical row only non-infected cells (cell control), each in RPMI 1640 medium/10% FBS/2 mM L-glutamine/1% Pen/Strep/Interleukin-2 (40 U/ml). The remaining wells of the MTP contain the compounds in accordance with the invention in various concentrations, starting from the third vertical row, from which the test substances are diluted in 3-step sequences up to the tenth vertical row by a factor of 3^7. The test substances are dissolved in DMSO; the final DMSO concentration in the test preparation is 1%. The test samples are incubated for 5 days at 37° C./5% CO2. After 5 to 7 days, 50 μl of cell-free supernatant is removed from each well to determine its p24 content using p24 ELISA (HIV-1 p24CA Antigen Capture Assay Kit, NCI-Frederick Cancer Research and Development Center, Frederick, USA). From the resulting values of the photometric analysis (450/620 nm), the EC50 values of the test substances are determined from the resulting dose-response curves using the Prism4 software (GraphPad, San Diego, Calif.) as the concentration of treated infected cells, where the p24 quantity is 50% of the untreated infected cells.
Alternatively, MT4 cells are used in place of PBLs for testing the test substances. HIV-1LAI-infected MT4 cells (MOI 0.01, supernatant infection) are incubated in accordance with the procedure described above in RPMI 1640 medium using 2% or 10% FKS/2 mM L-glutamine/1% Pen/Strep in the presence of the test substances for 5 days at 37° C./5% CO2 (10 μl diluted substance and 90 μl cells/virus per well). 10 μl alamarBlue (Invitrogen, Karlsruhe, Germany) is then added per well and the MTPs are incubated for 3 hours at 37° C. before fluorimetric evaluation is performed (544/590 nm). Using quattroWorkflow software (Quattroresearch, Martinsried, Germany), the EC50 values of the test substances are determined from the resulting dose-response curves as the concentration of treated infected cells in which the fluorescence is 50% of that of the untreated, non-infected cells.

On to `O=C1NCc2c1cccc2-c1cc(-c2cc(F)cc(Cl)c2)n(-c2ccc(F)c(Cl)c2)n1` [Example 3, 4-[1-(3-chloro-4-fluorophenyl)-5-(3-chloro-5-fluorophenyl)-1H-pyrazole-3-yl]-2,3-dihydro-1H-isoindole-1-one], for which the EC50 in the experiment on HIV-1NL4-3 K103N-Y181C turned out to be 0.0289 µM; with HIV-1NL4-3 wildtype, 0.006 µM; in the experiment on HIV-1LAI wildtype, 0.0586 µM.

Turning to `O=C1NCc2c1ccnc2-c1cc(-c2cc(F)cc(OC(F)F)c2)n(-c2cccnc2)n1` [Example 14, 4-{5-[3-(difluoromethoxy)-5-fluorophenyl]-1-(pyridine-3-yl)-1H-pyrazole-3-yl}-2,3-dihydro-1H-pyrrolo[3,4-c]pyridine-1-one], the EC50 with HIV-1NL4-3 K103N-Y181C was found to be 0.0097 µM; in the experiment with HIV-1NL4-3 wildtype, 0.001 µM; in the experiment on HIV-1LAI wildtype it was 0.0053 µM.

For `N#Cc1cc(-n2nc(-c3cccc4c3CNC4=O)cc2-c2cc(F)cc(Cl)c2)ccc1F` [Example 25], the EC50 with HIV-1NL4-3 K103N-Y181C is 0.0112 µM; in the experiment on HIV-1NL4-3 wildtype, 0.0009 µM; in the experiment on HIV-1LAI wildtype it was 0.0107 µM.

For the compound `O=C1NC(=O)c2c1cccc2-c1cc(-c2cc(F)cc(OC(F)(F)F)c2)n(-c2cccnc2)n1` [Example 8, 4-{5-[3-fluoro-5-(trifluoromethoxy)phenyl]-1-(pyridine-3-yl)-1H-pyrazole-3-yl}-1H-isoindole-1,3(2H)-dione], the values for the EC50 in the experiment on HIV-1NL4-3 K103N-Y181C, in the experiment with HIV-1NL4-3 wildtype and in the experiment on HIV-1LAI wildtype were above 3.3 µM, 0.643 µM and above 3.3 µM, respectively.

With `O=C1NCc2c1cccc2-c1cc(-c2cccc(F)c2F)n(-c2ccc(F)c(Cl)c2)n1` [Example 34], the EC50 in the experiment on HIV-1NL4-3 K103N-Y181C amounted to 0.458 µM; in the experiment with HIV-1NL4-3 wildtype, 0.131 µM; in the experiment on HIV-1LAI wildtype it was 0.75 µM.

`O=C1NCc2c1ccnc2-c1cc(-c2cc(Cl)cc(OC(F)F)c2)n(-c2ccnc(Cl)c2)n1` [Example 17, 4-{5-[3-chloro-5-(difluoromethoxy)phenyl]-1-(2-chloropyridine-4-yl)-1H-pyrazole-3-yl}-2,3-dihydro-1H-pyrrolo[3,4-c]pyridine-1-one]: the values for the EC50 in the experiment on HIV-1NL4-3 K103N-Y181C, with HIV-1NL4-3 wildtype and with HIV-1LAI wildtype were 0.0049 µM, 0.0011 µM and 0.0086 µM, respectively.

For `O=C1NCc2c1ccnc2-c1cc(-c2cc(F)cc(Cl)c2)n(-c2cccnc2)n1` [Example 2, 4-[5-(3-chloro-5-fluorophenyl)-1-(pyridine-3-yl)-1H-pyrazole-3-yl]-2,3-dihydro-1H-pyrrolo[3,4-c]pyridine-1-one], the figures for the EC50 in the experiment with HIV-1NL4-3 K103N-Y181C, in the experiment with HIV-1NL4-3 wildtype and in the experiment with HIV-1LAI wildtype were 0.0132 µM, 0.0013 µM and 0.0063 µM, respectively.

Regarding `O=C1NCc2c1ccnc2-c1cc(-c2cc(Cl)cc(OC(F)F)c2)n(-c2cccnc2)n1` [Example 16, 4-{5-[3-chloro-5-(difluoromethoxy)phenyl]-1-(pyridine-3-yl)-1H-pyrazole-3-yl}-2,3-dihydro-1H-pyrrolo[3,4-c]pyridine-1-one], the results for the EC50 in the experiment on HIV-1NL4-3 K103N-Y181C, with HIV-1NL4-3 wildtype and with HIV-1LAI wildtype were 0.0026 µM, 0.0005 µM and 0.0023 µM, respectively.

Consider `O=C1NCc2c1ccnc2-c1cc(-c2cccc(OC(F)F)c2)n(-c2ccc(F)c(Cl)c2)n1` [Example 42], for which the EC50 was found to be 0.0194 µM in the experiment with HIV-1NL4-3 K103N-Y181C, 0.0098 µM with HIV-1NL4-3 wildtype and 0.0717 µM with HIV-1LAI wildtype.

Take `O=C1NCc2c1ccnc2-c1cc(-c2cc(F)cc(OC(F)(F)F)c2)n(-c2cccnc2)n1` [Example 6, 4-{5-[3-fluoro-5-(trifluoromethoxy)phenyl]-1-(pyridine-3-yl)-1H-pyrazole-3-yl}-2,3-dihydro-1H-pyrrolo[3,4-c]pyridine-1-one]: the EC50 in the experiment with HIV-1NL4-3 K103N-Y181C was found to be 0.0083 µM; with HIV-1NL4-3 wildtype it was 0.0024 µM; in the experiment on HIV-1LAI wildtype, 0.0137 µM.

For `O=C1NCc2c1ccnc2-c1cc(-c2cc(F)cc(Cl)c2)n(-c2cccc(Cl)c2)n1` [Example 26], the EC50 with HIV-1NL4-3 K103N-Y181C stood at 0.0208 µM; with HIV-1NL4-3 wildtype, 0.0017 µM; with HIV-1LAI wildtype, 0.0153 µM.

Take `O=C1NCc2c1ncnc2-c1cc(-c2cc(Cl)cc(OC(F)(F)F)c2)n(-c2cccnc2)n1` [Example 45]: the EC50 worked out at 0.0007 µM in the experiment on HIV-1NL4-3 K103N-Y181C, 0.0005 µM with HIV-1NL4-3 wildtype and 0.0045 µM in the experiment on HIV-1LAI wildtype.

For the compound `O=C1NCc2c1cccc2-c1cc(-c2cc(F)cc(OC(F)(F)F)c2)n(-c2cccnc2)n1` [Example 7, 4-{5-[3-fluoro-5-(trifluoromethoxy)phenyl]-1-(pyridine-3-yl)-1H-pyrazole-3-yl}-2,3-dihydro-1H-isoindole-1-one], the EC50 is 0.0206 µM with HIV-1NL4-3 K103N-Y181C, 0.0107 µM in the experiment with HIV-1NL4-3 wildtype and 0.0512 µM with HIV-1LAI wildtype.

For `N#Cc1cccc(-c2cc(-c3nccc4c3CNC4=O)nn2-c2ccc(F)cc2)c1` [Example 35], the values for the EC50 in the experiment on HIV-1NL4-3 K103N-Y181C, with HIV-1NL4-3 wildtype and in the experiment with HIV-1LAI wildtype were 0.0317 µM, 0.0593 µM and 0.15 µM, respectively.

As to `Cc1ccc(-n2nc(-c3nccc4c3CNC4=O)cc2-c2cc(F)cc(Cl)c2)cc1Cl` [Example 28], the results for the EC50 in the experiment on HIV-1NL4-3 K103N-Y181C, in the experiment with HIV-1NL4-3 wildtype and in the experiment on HIV-1LAI wildtype were 0.0291 µM, 0.0172 µM and 0.0876 µM, respectively.

Turning to `Cc1nc2c(c(-c3cc(-c4cc(Cl)cc(OC(F)(F)F)c4)n(-c4cccnc4)n3)n1)CNC2=O` [Example 46], the EC50 is 0.0004 µM with HIV-1NL4-3 K103N-Y181C, 0.0004 µM with HIV-1NL4-3 wildtype and 0.0023 µM with HIV-1LAI wildtype.

Take `O=C1NCc2c1ccnc2-c1cc(-c2cc(Br)cc(OC(F)(F)F)c2)n(-c2ccc(F)c(Cl)c2)n1` [Example 12, 4-{5-[3-bromo-5-(trifluoromethoxy)phenyl]-1-(3-chloro-4-fluorophenyl)-1H-pyrazole-3-yl}-2,3-dihydro-1H-pyrrolo[3,4-c]pyridine-1-one]: the figures for the EC50 with HIV-1NL4-3 K103N-Y181C, in the experiment with HIV-1NL4-3 wildtype and with HIV-1LAI wildtype were 0.012 µM, 0.0089 µM and 0.0974 µM, respectively.

Regarding `O=C1NCc2c1cccc2-c1cc(-c2cc(Br)cc(OC(F)F)c2)n(-c2cccnc2)n1` [Example 21, 4-{5-[3-bromo-5-(difluoromethoxy)phenyl]-1-(pyridine-3-yl)-1H-pyrazole-3-yl}-2,3-dihydro-1H-isoindole-1-one], the EC50 in the experiment on HIV-1NL4-3 K103N-Y181C is 0.0283 µM; in the experiment with HIV-1NL4-3 wildtype, 0.0063 µM; in the experiment with HIV-1LAI wildtype it was 0.0325 µM.

On to `O=C1NCc2c1cccc2-c1cc(-c2cc(Cl)cc(OC(F)F)c2)n(-c2cccnc2)n1` [Example 18, 4-{5-[3-chloro-5-(difluoromethoxy)phenyl]-1-(pyridine-3-yl)-1H-pyrazole-3-yl}-2,3-dihydro-1H-isoindole-1-one], for which the EC50 in the experiment with HIV-1NL4-3 K103N-Y181C was determined as 0.013 µM; in the experiment with HIV-1NL4-3 wildtype, 0.0056 µM; in the experiment with HIV-1LAI wildtype it was 0.0177 µM.
